Results from US20110021640A1 (priority 2009, published 2011).

Biological target: T1, calf spleen adenosine deaminase (Bos taurus, UniProt P56658)
T1 construct: The calf spleen adenosine deaminase (Specific Activity of 178 Units/mg protein) is purchased from Sigma Chemical Company; purchased Sigma Chemical Company, St Louis, Mo; host or cells: calf spleen (tissue-derived enzyme)
T1 sequence (P56658 1-363): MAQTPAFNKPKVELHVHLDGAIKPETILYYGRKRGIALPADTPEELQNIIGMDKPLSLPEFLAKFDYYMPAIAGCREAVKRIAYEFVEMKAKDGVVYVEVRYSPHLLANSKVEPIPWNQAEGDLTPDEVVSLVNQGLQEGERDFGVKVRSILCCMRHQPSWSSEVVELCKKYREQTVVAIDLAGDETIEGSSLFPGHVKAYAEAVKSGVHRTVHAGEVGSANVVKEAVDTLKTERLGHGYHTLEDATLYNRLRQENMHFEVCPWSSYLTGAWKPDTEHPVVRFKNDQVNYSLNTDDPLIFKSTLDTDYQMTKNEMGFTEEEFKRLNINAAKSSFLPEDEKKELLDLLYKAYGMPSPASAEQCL
Experiment: Adenosine Deaminase (ADA) Assay, spectrophotometric at 265 nm
Assay type: biochemical
Settings: Tris-HCl buffer 50 mM, pH 7.5, 25° C., adenosine substrate; dose-response (FIGS. 1 and 2); read-out: IC50, amount of the product per ml of the reaction mixture producing the enzyme inhibition by 50% (converted)
Experimental: The enzyme catalyzes the following reaction:
Adenosine+H2O→Inosine+NH3
The calf spleen adenosine deaminase (Specific Activity of 178 Units/mg protein) is purchased from Sigma Chemical Company, St Louis, Mo. The enzyme assay is carried out spectrophotometrically at 265 nm. The reaction mixture (in a 1-ml cuvette; diameter=1.0 cm) contains 0.9 ml of buffer (Tris-HCL buffer, 50 mM, pH 7.5), 25 μl of adenosine (2 mM), plus the enzyme, water and the extract to make 1 ml. The enzyme is added to start the reaction, and a decrease in absorbency at 265 nm is followed at 25° C. One unit of ADA activity is the amount of the enzyme that catalyzes 1 μmole of adenosine/min/ml of the reaction mixture.
The IC50 values have been determined by examining the dose-response effects of both products. The IC50 values represent the amount of the product per ml of the reaction mixture, producing the enzyme inhibition by 50%. In the enzyme assay, first a background reading is recorded on the chart for 1-2 min, followed by the addition of an appropriate amount of the enzyme to start the reaction, which is monitored spectrophotometrically.

IC50: 50.8 µM
SMILES: Oc1ccc(/C=C/c2cc(O)cc(O)c2)cc1 [resveratrol, 3,5,4′-trihydroxystilbene]
